Blank lines part the entries; values can stand above or below the compound they belong to.
Tests used:
[1] = tested on: appetite; conditions: rats; cited from earlier work
[2] = General findings on esters: circulating (R)-3-hydroxybutyrate, gut uptake; assay type: in vivo
[3] = tested on: plasma ghrelin; experiment: General finding on esters: plasma ghrelin levels; conditions: in vivo
[4] = tested on: plasma glucose; experiment: Plasma glucose after study drink (commercial analyzer); assay type: in vivo, human
Method: (§1) A randomised, single-blinded, cross-over study examined the effects of isocaloric ketone ester (KE) and dextrose drinks hunger in healthy, normal-weight participants (n=15) (FIG. 1A). An external Research Ethics Committee (14/LO/0288) approved the study, which was conducted at the University of Oxford in accordance with the Declaration of Helsinki. Participants were healthy, aged 21-42 and with no history of major illness (Anthropometric characteristics in Table 1). Participants provided written informed consent prior to inclusion. Drink order was randomised prior to commencement. Participants refrained from alcohol and caffeine for 24 h prior to each visit and consumed an identical evening meal, at the same time before each visit. Testing started at 0800 h following an overnight (>8 h) fast, with a minimum of 72 h between visits. Venous blood samples (2 ml) were obtained using a 22G catheter inserted into an antecubital vein. […] Blood pHB was measured using a handheld monitor and reagent strips (Precision Xtra, Abbott Diabetes Care, UK). Blood samples were stored on ice, centrifuged and duplicate plasma aliquots stored at −80° C. and analysed within 6 weeks. Plasma glucose was assayed using a commercial analyzer (ABX Pentra, France), whereas insulin, total ghrelin, GLP-1 and PYY were measured using commercially available ELISA assays (Mercodia, Sweden and Merck Millipore, Germany).

[5] = tested on: insulin; experiment: Plasma insulin after study drink (ELISA); assay type: in vivo, human
Method: as §1

[6] = tested on: hunger; experiment: Visual-analogue-scale (VAS) for hunger, desire to eat and fullness after study drink; assay type: in vivo, human
Method: A randomised, single-blinded, cross-over study examined the effects of isocaloric ketone ester (KE) and dextrose drinks hunger in healthy, normal-weight participants (n=15) (FIG. 1A). An external Research Ethics Committee (14/LO/0288) approved the study, which was conducted at the University of Oxford in accordance with the Declaration of Helsinki. Participants were healthy, aged 21-42 and with no history of major illness (Anthropometric characteristics in Table 1). Participants provided written informed consent prior to inclusion. Drink order was randomised prior to commencement. Participants refrained from alcohol and caffeine for 24 h prior to each visit and consumed an identical evening meal, at the same time before each visit. Testing started at 0800 h following an overnight (>8 h) fast, with a minimum of 72 h between visits. Venous blood samples (2 ml) were obtained using a 22G catheter inserted into an antecubital vein. Fasting blood samples were collected prior to all interventions and then at regular intervals for 4 h following the study drink. At identical time points, participants completed a validated three-measure visual-analogue-scale (VAS) to assess ‘hunger,’ ‘desire to eat and’ fullness' (Stubbs et al., “The use of visual analogue scales to assess motivation to eat in human subjects: a review of their reliability and validity with an evaluation of new hand-held computerized systems for temporal tracking of hunger ratings”, Br J Nutr, 2000, 84(4):405-15). Each drink contained 1.9 kCal/kg of pHB (as ketone ester) or dextrose. Drinks were diluted to 500 ml with a commercially available citrus-flavoured drink containing 65 kCal ([…] of carbohydrate) (Glaceau, UK). The dextrose drink was taste-matched using a bitterness additive (Symrise, Holzminden, Germany). Prism6™ software was used for statistical analysis. VAS scores were measured as a distance (mm), and normalised by taking the baseline distance for each visit as ‘0’. Values are means±SEM with significance at p<0.05. […] Correlations were calculated using a two-tailed Pearson's test with a 95% confidence interval.

[7] = tested on: total ghrelin; experiment: Plasma total ghrelin after study drink (ELISA); assay type: in vivo, human
Method: A randomised, single-blinded, cross-over study examined the effects of isocaloric ketone ester (KE) and dextrose drinks hunger in healthy, normal-weight participants (n=15) (FIG. 1A). An external Research Ethics Committee (14/LO/0288) approved the study, which was conducted at the University of Oxford in accordance with the Declaration of Helsinki. Participants were healthy, aged 21-42 and with no history of major illness (Anthropometric characteristics in Table 1). Participants provided written informed consent prior to inclusion. Drink order was randomised prior to commencement. Participants refrained from alcohol and caffeine for 24 h prior to each visit and consumed an identical evening meal, at the same time before each visit. Testing started at 0800 h following an overnight (>8 h) fast, with a minimum of 72 h between visits. Venous blood samples (2 ml) were obtained using a 22G catheter inserted into an antecubital vein. Fasting blood samples were collected prior to all interventions and then at regular intervals for 4 h following the study drink. At identical time points, participants completed a validated three-measure visual-analogue-scale (VAS) to assess ‘hunger,’ ‘desire to eat and’ fullness' (Stubbs et al., “The use of visual analogue scales to assess motivation to eat in human subjects: a review of their reliability and validity with an evaluation of new hand-held computerized systems for temporal tracking of hunger ratings”, Br J Nutr, 2000, 84(4):405-15). Each drink contained 1.9 kCal/kg of pHB (as ketone ester) or dextrose. Drinks were diluted to 500 ml with a commercially available citrus-flavoured drink containing 65 kCal (5 g of carbohydrate) (Glaceau, UK). The dextrose drink was taste-matched using a bitterness additive (Symrise, Holzminden, Germany). Blood pHB was measured using a handheld monitor and reagent strips (Precision Xtra, Abbott Diabetes Care, UK). Blood samples were stored on ice, centrifuged and duplicate plasma aliquots stored at −80° C. and analysed within 6 weeks. Plasma glucose was assayed using a commercial analyzer (ABX Pentra, France), whereas insulin, total ghrelin, GLP-1 and PYY were measured using commercially available ELISA assays (Mercodia, Sweden and Merck Millipore, Germany).

[8] = tested on: GLP-1; experiment: Plasma GLP-1 after study drink (ELISA); assay type: in vivo, human; conditions: after 30 min
Method: as §1

[9] = tested on: PYY; experiment: Plasma PYY after study drink (ELISA); assay type: in vivo, human; conditions: after 30 min
Method: as §1

Compound: CC(O)CCOC(=O)CC(C)O (centres unmarked) [3-hydroxybutyl 3-hydroxybutyrate]
appetite [1]: suppress appetite

circulating levels of (R)-3-hydroxybutyrate in the blood ([2]; in vivo): high circulating levels | uptake in the gut ([2]; in vivo): surprisingly high level of uptake
Compound: C[C@@H](O)CCOC(=O)C[C@@H](C)O [(R)-3-hydroxybutyrate (R)-1,3-butanediol monoester]
plasma ghrelin levels [3]: reduce plasma ghrelin levels

Compound: C[C@@H](O)CCOC(=O)C[C@@H](C)O [KE]
Plasma glucose levels ([4]; 30 min after drink, mean±SEM): 5.1 ± 0.2 mM | plasma glucose, difference between KE and dextrose drinks ([4]; after 90 min): no significant differences | Plasma insulin levels ([5]; 30 min after drink, mean±SEM): 13±2 mU/L | plasma insulin, difference between KE and dextrose drinks ([5]; after 90 min): no significant differences | Perceived 'Fullness' ([6]; KE vs dextrose drinks): the same | 'desire to eat' lowered compared to dextrose drinks ([6]; for 1.5 to 4 h after drink): −50% | perception of 'hunger' lowered compared to dextrose drinks ([6]; for 1.5 to 4 h after drink): −50% | plasma ghrelin ([7]; 1 h following drink): 320 pg/mL | Total ghrelin AUC lower with KE vs. dextrose ([7]; 4 h after drink): 17% | Total ghrelin AUC ([7]; 4 h after drink, mean±SEM): 86 ± 6 ng·min/mL | plasma ghrelin lower than after dextrose ([7]; between 2-4 h post-drink): > 100 pg/mL | plasma GLP-1 levels [8]: 5 pg/mL | plasma PYY levels [9]: 57 pg/mL

uptake in the gut ([2]; in vivo): surprisingly high level of uptake | circulating levels of (R)-3-hydroxybutyrate in the blood ([2]; upon consumption of a drink): high circulating levels
Compound: (R)-3-hydroxybutyrate-glycerol partial ester
plasma ghrelin levels [3]: reduce plasma ghrelin levels

— patent US12370165B2, “Hunger suppression” (TDeltaS Limited, priority 2017, dated 2025)
